Assay results taken from PMC11537005, “Antimicrobial activity of novel symmetrical antimicrobial peptides centered on a hydrophilic motif against resistant clinical isolates: in vitro and in vivo analyses” (Microbiology Spectrum, 2024).
Values after ≈ are worked out from the molar mass of the structure shown. Residues, ends and D or L forms follow the SMILES beside them.

Legend:
clinically isolated MRSA [1] = test: microbe, parasite or virus in culture
Source text: (§1) The test strains (Gram-negative: E. coli ATCC 25922, E. coli k88, E. coli k99, E. coli 987, P. aeruginosa ATCC PAO1, Salmonella pullorum ATCC 7731, S. pullorum ATCC 7913, and S. typhimurium ATCC 14028; Gram-positive: S. aureus ATCC 29213, S. aureus ATCC 25923, S. epidermidis ATCC 12228, MRSA ATCC 43300, MRSA 544, MRSA 103, L. rhamnosus ATCC 8014, and L. rhamnosus 1.9021) were maintained at the School of Medicine in the Shenzhen Campus of Sun Yat-sen University. Mouse RBCs were extracted from a specific pathogen-free (SPF) grade mouse.
The peptides' antimicrobial effectiveness was evaluated using a method derived from a previous publication ([59]) and modified for use in this study. Single colonies were seeded and cultured in brain–heart infusion (BHI) medium at 37°C until log-phase growth after adjustment to OD600 = 0.4, which was followed by a 1000-fold dilution with phosphate-buffered saline (PBS). Then, in sterile 96-well plates, twofold serial dilutions of the peptides were added, followed by 50-µL aliquots of the bacterial cell solution. The ultimate concentrations of the antibacterial agents were 0.125–64 μM. Moreover, bacteria and PBS were added to the TSB as positive and negative controls, respectively. The plates were placed in an incubator set at 37°C for 18 hours. The trial was conducted a minimum of three times in sets of three. […] The MIC was defined as the lowest peptide concentration required to inhibit bacterial growth.

MRSA 103 [2] = test: microbe, parasite or virus in culture; assay type: cell-based, Staphylococcus aureus
Source text: as §1
(§2) The peptides' antimicrobial effectiveness was evaluated using a method derived from a previous publication ([59]) and modified for use in this study. Single colonies were seeded and cultured in brain–heart infusion (BHI) medium at 37°C until log-phase growth after adjustment to OD600 = 0.4, which was followed by a 1000-fold dilution with phosphate-buffered saline (PBS). Then, in sterile 96-well plates, twofold serial dilutions of the peptides were added, followed by 50-µL aliquots of the bacterial cell solution. The ultimate concentrations of the antibacterial agents were 0.125–64 μM. Moreover, bacteria and PBS were added to the TSB as positive and negative controls, respectively. The plates were placed in an incubator set at 37°C for 18 hours. The trial was conducted a minimum of three times in sets of three. Successful completion of the experiment was confirmed by observing the turbidity of the positive control and clarity of the negative control culture medium. The MIC was defined as the lowest peptide concentration required to inhibit bacterial growth.

MRSA 544 [3] = test: microbe, parasite or virus in culture; assay type: cell-based, Staphylococcus aureus
Source text: as §1, §2

MRSA 103 [4] = test: microbe, parasite or virus in culture; assay type: cell-based, Staphylococcus aureus; remark: listed apart in the source
Protocol: as §2
(§3) For MBC analysis, viable cells from all wells with no visible bacterial growth were determined on the BHI agar plates. After 24 hours of cultivation at 37°C, the MBC endpoint was defined as the minimum concentration at which 99.9% of the bacterial population was killed.

MRSA 544 [5] = test: microbe, parasite or virus in culture; assay type: cell-based, Staphylococcus aureus; remark: listed apart in the source
Protocol: as §2, §3

MRSA 544 [6] = test: Time-kill kinetics; assay type: cell-based, Staphylococcus aureus; settings: 2 × MIC, 4 × MIC and 8 × MIC, 0–7 hours
Protocol: MRSA 544 was cultured to the logarithmic phase (OD600 = 0.4) and diluted 1000-fold with PBS. […] At various periods (0, 5, 10, 15, 20, 25, 30, and 60 minutes), microbial suspensions were serially diluted (10-, 100-, and 1000-fold) with PBS, and 10 µL of the diluted suspension was plated on tryptic soy agar (TSA) medium. Single colonies of microorganisms were counted after 12-hour incubation at 37°C. The processing steps of vancomycin were the same as those of AMP W5, but with different concentrations (2 × MIC, 4 × MIC, and 8 × MIC) and periods (0, 1, 2, 3, 4, 5, 6, and 7 hours). Average values were calculated and plotted after six repetitions.

BALB/c mice = test: In vivo safety assessment; parameters: species or system mouse; settings: 10 mg/kg intravenously, five days after injection
Protocol: The in vivo safety assessment and antibacterial activity analysis of the peptides were performed using a murine skin infection model wherein 25 SPF-grade 6- to 8-week-old female mice (BALB/c) were randomly divided into five cages (n = 5 in each cage). The animals were housed individually in ventilated cages (IVC), at a temperature of 20°C–24°C, humidity of 50%–60%, and a 12-hour day–night cycle.
Two groups of five mice were randomly divided and intravenously injected with 100 µL PBS or a 10 mg/kg solution of AMP W5 diluted with PBS. Five days after injection, all animals were euthanized. The weight of each mouse was determined from day 0 to day 5. Blood samples were collected to analyze hepatorenal damage, and an automatic biochemical analyzer was used to measure indicators, including ALT, AST, ALP, BUN, CREA, and LDH. The livers and kidneys of the mice were stained with hematoxylin/eosin (HE) for histological analysis.

clinically isolated MRSA [7] = assay type: cell-based, Staphylococcus aureus; settings: 18 h
Protocol: as §2, §3

standard MRSA strains = assay type: cell-based, Staphylococcus aureus; settings: 18 h
Source text: as §1
The peptides' antimicrobial effectiveness was evaluated using a method derived from a previous publication ([59]) and modified for use in this study. Single colonies were seeded and cultured in brain–heart infusion (BHI) medium at 37°C until log-phase growth after adjustment to OD600 = 0.4, which was followed by a 1000-fold dilution with phosphate-buffered saline (PBS). Then, in sterile 96-well plates, twofold serial dilutions of the peptides were added, followed by 50-µL aliquots of the bacterial cell solution. The ultimate concentrations of the antibacterial agents were 0.125–64 μM. Moreover, bacteria and PBS were added to the TSB as positive and negative controls, respectively. The plates were placed in an incubator set at 37°C for 18 hours. The trial was conducted a minimum of three times in sets of three. […]

[8] = clinically isolated MRSA strains, 37°C, 18 hours
[9] = Staphylococcus aureus, MRSA, 18 h
[10] = Staphylococcus aureus, MRSA, 24 h

Structure (SMILES)	MIC (MRSA 103 [2]; 103, 18 h)	MIC (MRSA 544 [3]; 544, 18 h)	MBC (MRSA 103 [4]; 103, 24 h)	MBC (MRSA 544 [5]; 544, 24 h)	further results
CC[C@H](C)[C@H](NC(=O)CN)C(=O)NCC(=O)N[C@@H](C)C(=O)N[C@H](C(=O)N[C@@H](CC(C)C)C(=O)N[C@@H](CCCCN)C(=O)N[C@H](C(=O)N[C@@H](CC(C)C)C(=O)N[C@H](C(=O)N[C@H](C(=O)NCC(=O)N[C@@H](CC(C)C)C(=O)N1CCC[C@H]1C(=O)N[C@@H](C)C(=O)N[C@@H](CC(C)C)C(=O)N[C@H](C(=O)N[C@@H](CO)C(=O)N[C@@H](Cc1c[nH]c2ccccc12)C(=O)N[C@H](C(=O)N[C@@H](CCCCN)C(=O)N[C@@H](CCCNC(=N)N)C(=O)N[C@@H](CCCCN)C(=O)N[C@@H](CCCNC(=N)N)C(=O)N[C@@H](CCC(N)=O)C(=O)N[C@@H](CCC(N)=O)C(N)=O)[C@@H](C)CC)[C@@H](C)CC)[C@@H](C)O)[C@@H](C)O)C(C)C)C(C)C [Melittin, reference compound]	–	–	–	–	MIC (clinically isolated MRSA [1]; [8]): 4 µM (≈ 11.4 µg/mL); MIC (MRSA 103 [2]; MRSA 103, twofold serial dilutions 0.125–64 μM, 96-well plates, 37°C, 18 hours, minimum of three times in sets of three): 4 µM (≈ 11.4 µg/mL); MIC (MRSA 544 [3]; MRSA 544, twofold serial dilutions 0.125–64 μM, 96-well plates, 37°C, 18 hours, minimum of three times in sets of three): 4 µM (≈ 11.4 µg/mL); MBC as multiple of MIC (MRSA 103 [4]; MRSA 103): 2 × MIC; MBC (MRSA 103 [4]; MRSA 103, BHI agar plates, 24 hours at 37°C, minimum concentration at which 99.9% killed): 8 µM (≈ 22.8 µg/mL); MBC (MRSA 544 [5]; MRSA 544, BHI agar plates, 24 hours at 37°C, minimum concentration at which 99.9% killed): 4 µM (≈ 11.4 µg/mL)
CN[C@H](CC(C)C)C(=O)N[C@H]1C(=O)N[C@@H](CC(N)=O)C(=O)N[C@H]2C(=O)N[C@H]3C(=O)N[C@H](C(=O)N[C@H](C(=O)O)c4cc(O)cc(O)c4-c4cc3ccc4O)[C@H](O)c3ccc(c(Cl)c3)Oc3cc2cc(c3O[C@@H]2O[C@H](CO)[C@@H](O)[C@H](O)[C@H]2O[C@H]2C[C@](C)(N)[C@H](O)[C@H](C)O2)Oc2ccc(cc2Cl)[C@H]1O [Vancomycin, reference compound]	–	–	–	–	MIC (clinically isolated MRSA [1]; [9]): 0.5 µM (≈ 0.725 µg/mL); MIC (MRSA 103 [2]; [9]): 0.5 µM (≈ 0.725 µg/mL); MIC (MRSA 544 [3]; [9]): 0.5 µM (≈ 0.725 µg/mL); MBC as multiple of MIC (MRSA 103 [4]; MRSA 103): 8 × MIC; MBC (MRSA 103 [4]; [10]): 4 µM (≈ 5.8 µg/mL); MBC as multiple of MIC (MRSA 544 [5]; MRSA 544): 8 × MIC; MBC (MRSA 544 [5]; [10]): 4 µM (≈ 5.8 µg/mL); Bactericidal effect in time-kill assay (MRSA 544 [6]): no signs of complete eradication even after 7 hours
N=C(N)NCCC[C@H](NC(=O)CNC(=O)[C@H](CO)NC(=O)CNC(=O)[C@H](CCCNC(=N)N)NC(=O)[C@@H](N)Cc1c[nH]c2ccccc12)C(=O)N[C@@H](Cc1c[nH]c2ccccc12)C(N)=O [W1] (H-WRGSGRW-NH2)	> 64 µM	> 64 µM	> 64 µM	> 64 µM	–
N=C(N)NCCC[C@H](NC(=O)CNC(=O)[C@H](CO)NC(=O)CNC(=O)[C@H](CCCNC(=N)N)NC(=O)[C@H](CCCNC(=N)N)NC(=O)[C@@H](N)Cc1c[nH]c2ccccc12)C(=O)N[C@@H](CCCNC(=N)N)C(=O)N[C@@H](Cc1c[nH]c2ccccc12)C(N)=O [W2] (H-WRRGSGRRW-NH2)	> 64 µM	> 64 µM	> 64 µM	> 64 µM	–
N=C(N)NCCC[C@H](NC(=O)CNC(=O)[C@H](CO)NC(=O)CNC(=O)[C@H](CCCNC(=N)N)NC(=O)[C@H](CCCNC(=N)N)NC(=O)[C@H](CCCNC(=N)N)NC(=O)[C@@H](N)Cc1c[nH]c2ccccc12)C(=O)N[C@@H](CCCNC(=N)N)C(=O)N[C@@H](CCCNC(=N)N)C(=O)N[C@@H](Cc1c[nH]c2ccccc12)C(N)=O [W3] (H-WRRRGSGRRRW-NH2)	> 64 µM	> 64 µM	> 64 µM	> 64 µM	–
N=C(N)NCCC[C@H](NC(=O)CNC(=O)[C@H](CO)NC(=O)CNC(=O)[C@H](CCCNC(=N)N)NC(=O)[C@H](CCCNC(=N)N)NC(=O)[C@H](CCCNC(=N)N)NC(=O)[C@H](Cc1c[nH]c2ccccc12)NC(=O)[C@@H](N)Cc1c[nH]c2ccccc12)C(=O)N[C@@H](CCCNC(=N)N)C(=O)N[C@@H](CCCNC(=N)N)C(=O)N[C@@H](Cc1c[nH]c2ccccc12)C(=O)N[C@@H](Cc1c[nH]c2ccccc12)C(N)=O [W4] (H-WWRRRGSGRRRWW-NH2)	16 µM (≈ 30.4 µg/mL)	16 µM (≈ 30.4 µg/mL)	32 µM (≈ 60.8 µg/mL)	32 µM (≈ 60.8 µg/mL)	–
N=C(N)NCCC[C@H](NC(=O)CNC(=O)[C@H](CO)NC(=O)CNC(=O)[C@H](CCCNC(=N)N)NC(=O)[C@H](CCCNC(=N)N)NC(=O)[C@H](CCCNC(=N)N)NC(=O)[C@H](Cc1c[nH]c2ccccc12)NC(=O)[C@H](Cc1c[nH]c2ccccc12)NC(=O)[C@@H](N)Cc1c[nH]c2ccccc12)C(=O)N[C@@H](CCCNC(=N)N)C(=O)N[C@@H](CCCNC(=N)N)C(=O)N[C@@H](Cc1c[nH]c2ccccc12)C(=O)N[C@@H](Cc1c[nH]c2ccccc12)C(=O)N[C@@H](Cc1c[nH]c2ccccc12)C(N)=O [W5] (H-WWWRRRGSGRRRWWW-NH2)	8 µM (≈ 18.2 µg/mL)	8 µM (≈ 18.2 µg/mL)	8 µM (≈ 18.2 µg/mL)	8 µM (≈ 18.2 µg/mL)	MIC (clinically isolated MRSA [1]; [8]): 8 µM (≈ 18.2 µg/mL); HE staining of liver and kidney (BALB/c mice): no hepatotoxicity or nephrotoxicity; MBC (clinically isolated MRSA [7]): 8 µM (≈ 18.2 µg/mL); MIC (standard MRSA strains): 2 µM (≈ 4.55 µg/mL)
